We go through nine compounds from ChEMBL document CHEMBL3132769, “Fragment growing to retain or alter the selectivity of anchored kinase hinge-binding fragments” (Medchemcomm, 2014).

The target of test [1] is MAP/microtubule affinity-regulating kinase 3 (Homo sapiens) (UniProt P27448). Briefly: Inhibition of human full length c-TAK1 expressed in Escherichia coli cell assessed as substrate phosphorylation using fluorescence-labelled peptides as substrate at 8 uM after 90 mins by microfluidic peptide phosphorylation assay.
Test [2] has as its system Tyrosine-protein kinase ABL1 (Homo sapiens), P00519 [Q252H]. Briefly: Inhibition of human truncated ABL Q252H mutant expressed in baculovirus assessed as substrate phosphorylation using fluorescence-labelled peptides as substrate at 420 uM after 90 mins by microfluidic peptide phosphorylation assay.
Test [3] addresses T1, Aurora kinase C (Homo sapiens) (UniProt Q9UQB9).
T1 sequence (whole entry): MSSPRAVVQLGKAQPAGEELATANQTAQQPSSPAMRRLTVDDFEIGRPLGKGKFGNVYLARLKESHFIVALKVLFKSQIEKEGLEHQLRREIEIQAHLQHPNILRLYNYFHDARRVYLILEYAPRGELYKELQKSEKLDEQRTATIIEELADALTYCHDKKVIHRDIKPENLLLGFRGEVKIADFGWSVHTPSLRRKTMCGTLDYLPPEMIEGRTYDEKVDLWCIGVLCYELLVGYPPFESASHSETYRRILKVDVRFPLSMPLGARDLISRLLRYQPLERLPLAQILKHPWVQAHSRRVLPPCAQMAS
Briefly: Inhibition of human full length AurC expressed in baculovirus assessed as substrate phosphorylation using fluorescence-labelled peptides as substrate at 420 uM after 90 mins by microfluidic peptide phosphorylation assay.

For test [4], the target named is T2, Serine/threonine-protein kinase 3 (Homo sapiens) (UniProt Q13188).
T2 sequence (whole entry): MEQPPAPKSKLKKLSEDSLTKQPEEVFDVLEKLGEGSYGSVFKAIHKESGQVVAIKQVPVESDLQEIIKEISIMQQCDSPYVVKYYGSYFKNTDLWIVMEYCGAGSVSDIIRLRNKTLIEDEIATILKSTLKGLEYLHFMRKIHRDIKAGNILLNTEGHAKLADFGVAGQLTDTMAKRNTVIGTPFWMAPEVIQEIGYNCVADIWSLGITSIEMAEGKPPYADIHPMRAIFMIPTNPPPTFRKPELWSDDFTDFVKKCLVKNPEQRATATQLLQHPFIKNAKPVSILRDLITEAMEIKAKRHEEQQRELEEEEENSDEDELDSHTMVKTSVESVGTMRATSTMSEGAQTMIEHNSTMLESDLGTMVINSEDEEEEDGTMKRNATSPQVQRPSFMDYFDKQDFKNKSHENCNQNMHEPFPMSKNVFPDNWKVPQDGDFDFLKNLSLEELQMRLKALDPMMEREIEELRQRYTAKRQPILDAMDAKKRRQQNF
Briefly: Inhibition of human full length MST2 expressed in baculovirus assessed as substrate phosphorylation using fluorescence-labelled peptides as substrate at 0.1 uM after 90 mins by microfluidic peptide phosphorylation assay.

In test [5] the target is Tyrosine-protein kinase Fyn (Homo sapiens) (UniProt P06241). The test is described as follows: Inhibition of human full length FYN expressed in baculovirus assessed as substrate phosphorylation using fluorescence-labelled peptides as substrate at 0.06 uM after 90 mins by microfluidic peptide phosphorylation assay.
Test [6] addresses MAP kinase p38 (Homo sapiens) (UniProt O15264+Q15759+Q16539+P53778). The test is described as follows: Inhibition of human full length p38 beta2 expressed in Escherichia coli cell assessed as substrate phosphorylation using fluorescence-labelled peptides as substrate at 9 uM after 90 mins by microfluidic peptide phosphorylation assay.
Test [7] relates to Tyrosine-protein kinase ABL1 (Homo sapiens), P00519 [H396P]. Briefly: Inhibition of human truncated ABL H396P mutant expressed in baculovirus assessed as substrate phosphorylation using fluorescence-labelled peptides as substrate at 70 uM after 90 mins by microfluidic peptide phosphorylation assay.
Test [8] has as its target Protein kinase C alpha type (Homo sapiens) (UniProt P17252). The test is described as follows: Inhibition of human truncated PKC alpha expressed in baculovirus assessed as substrate phosphorylation using fluorescence-labelled peptides as substrate at 2 uM after 90 mins by microfluidic peptide phosphorylation assay.
The target of test [9] is Ribosomal protein S6 kinase alpha-3 (Homo sapiens) (UniProt P51812). Briefly: Inhibition of human full length RSK2 expressed in baculovirus assessed as substrate phosphorylation using fluorescence-labelled peptides as substrate at 95 uM after 90 mins by microfluidic peptide phosphorylation assay.
In test [10] the target is Platelet-derived growth factor receptor alpha (Homo sapiens) (UniProt P16234). The test is described as follows: Inhibition of human PDGFR alpha catalytic domain expressed in baculovirus assessed as substrate phosphorylation using fluorescence-labelled peptides as substrate at 95 uM after 90 mins by microfluidic peptide phosphorylation assay.
Test [11] deals with T3, Serine/threonine-protein kinase BRSK1 (Homo sapiens) (UniProt Q8TDC3).
T3 sequence (whole entry): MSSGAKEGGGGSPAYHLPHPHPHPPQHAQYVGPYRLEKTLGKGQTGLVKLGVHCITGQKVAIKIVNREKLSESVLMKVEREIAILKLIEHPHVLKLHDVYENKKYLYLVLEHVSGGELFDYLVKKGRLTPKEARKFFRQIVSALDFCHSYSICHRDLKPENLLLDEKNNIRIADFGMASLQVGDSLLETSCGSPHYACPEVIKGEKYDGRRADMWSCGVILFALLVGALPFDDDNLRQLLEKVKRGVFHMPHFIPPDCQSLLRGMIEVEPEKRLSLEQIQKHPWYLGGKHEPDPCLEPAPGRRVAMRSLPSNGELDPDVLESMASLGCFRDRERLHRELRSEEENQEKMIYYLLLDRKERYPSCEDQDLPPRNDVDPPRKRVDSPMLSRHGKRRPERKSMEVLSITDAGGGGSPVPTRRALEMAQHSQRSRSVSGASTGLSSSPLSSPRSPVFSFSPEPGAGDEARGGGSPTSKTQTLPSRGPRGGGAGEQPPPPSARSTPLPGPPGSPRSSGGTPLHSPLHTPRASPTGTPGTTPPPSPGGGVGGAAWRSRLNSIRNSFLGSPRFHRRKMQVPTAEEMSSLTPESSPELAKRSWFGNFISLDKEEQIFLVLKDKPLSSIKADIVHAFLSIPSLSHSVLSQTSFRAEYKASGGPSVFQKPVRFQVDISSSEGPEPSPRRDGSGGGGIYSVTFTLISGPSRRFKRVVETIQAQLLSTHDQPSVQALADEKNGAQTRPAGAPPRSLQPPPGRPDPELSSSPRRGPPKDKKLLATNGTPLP
Briefly: Inhibition of human full length BRSK1 expressed in baculovirus assessed as substrate phosphorylation using fluorescence-labelled peptides as substrate at 95 uM after 90 mins by microfluidic peptide phosphorylation assay.

The target of test [12] is Cyclin-dependent kinase 2 (Homo sapiens) (UniProt P24941). The test is described as follows: Inhibition of human full length CDK2 expressed in baculovirus assessed as substrate phosphorylation using fluorescence-labelled peptides as substrate at 1000 uM after 90 mins by microfluidic peptide phosphorylation assay.

SMILES strings stand for the structures.

Sequence of Platelet-derived growth factor receptor alpha (Homo sapiens) (P16234 whole entry, the tested form may be a part): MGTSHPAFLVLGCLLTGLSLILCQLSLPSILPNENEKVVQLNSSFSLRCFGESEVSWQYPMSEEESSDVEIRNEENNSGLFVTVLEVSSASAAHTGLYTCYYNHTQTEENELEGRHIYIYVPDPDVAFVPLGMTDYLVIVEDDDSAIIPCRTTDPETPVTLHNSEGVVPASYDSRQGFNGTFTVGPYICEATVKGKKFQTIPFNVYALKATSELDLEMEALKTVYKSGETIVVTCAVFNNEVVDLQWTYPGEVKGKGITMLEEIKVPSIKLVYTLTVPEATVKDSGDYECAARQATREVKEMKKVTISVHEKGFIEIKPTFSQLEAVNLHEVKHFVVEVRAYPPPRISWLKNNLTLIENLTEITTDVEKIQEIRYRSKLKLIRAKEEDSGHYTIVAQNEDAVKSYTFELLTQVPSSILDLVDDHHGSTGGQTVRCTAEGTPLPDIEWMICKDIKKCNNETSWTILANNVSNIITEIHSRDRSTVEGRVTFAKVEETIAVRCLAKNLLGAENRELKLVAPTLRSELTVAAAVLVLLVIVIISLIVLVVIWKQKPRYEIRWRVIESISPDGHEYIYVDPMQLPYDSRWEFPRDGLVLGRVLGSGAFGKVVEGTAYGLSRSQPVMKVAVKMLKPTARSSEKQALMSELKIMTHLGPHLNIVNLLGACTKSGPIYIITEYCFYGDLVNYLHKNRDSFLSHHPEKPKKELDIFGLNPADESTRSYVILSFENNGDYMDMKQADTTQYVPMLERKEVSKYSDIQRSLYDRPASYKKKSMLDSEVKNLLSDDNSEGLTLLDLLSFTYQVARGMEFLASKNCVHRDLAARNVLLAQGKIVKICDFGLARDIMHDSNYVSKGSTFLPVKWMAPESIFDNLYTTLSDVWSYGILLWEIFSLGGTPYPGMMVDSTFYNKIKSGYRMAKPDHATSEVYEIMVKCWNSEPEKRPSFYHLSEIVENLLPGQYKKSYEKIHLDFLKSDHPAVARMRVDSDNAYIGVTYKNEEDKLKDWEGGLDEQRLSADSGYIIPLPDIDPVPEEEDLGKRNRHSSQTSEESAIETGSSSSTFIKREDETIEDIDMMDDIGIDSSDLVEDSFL
Sequence of Tyrosine-protein kinase Fyn (Homo sapiens) (P06241 2-537 limits assumed): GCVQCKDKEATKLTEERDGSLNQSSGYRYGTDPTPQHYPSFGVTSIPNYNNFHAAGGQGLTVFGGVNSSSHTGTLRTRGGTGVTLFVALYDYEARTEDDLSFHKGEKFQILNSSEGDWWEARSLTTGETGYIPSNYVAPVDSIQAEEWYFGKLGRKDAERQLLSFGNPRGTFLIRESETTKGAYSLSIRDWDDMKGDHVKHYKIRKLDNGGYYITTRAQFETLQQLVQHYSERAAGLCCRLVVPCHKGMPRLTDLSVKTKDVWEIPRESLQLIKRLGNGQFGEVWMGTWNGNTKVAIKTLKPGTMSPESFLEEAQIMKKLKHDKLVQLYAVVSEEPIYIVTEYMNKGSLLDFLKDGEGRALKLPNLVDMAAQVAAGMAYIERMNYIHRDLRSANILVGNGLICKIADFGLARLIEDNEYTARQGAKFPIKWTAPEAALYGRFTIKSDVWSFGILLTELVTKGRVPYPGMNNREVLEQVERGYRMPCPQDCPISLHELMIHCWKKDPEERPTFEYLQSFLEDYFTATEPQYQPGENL
Sequence of MAP/microtubule affinity-regulating kinase 3 (Homo sapiens) (P27448 whole entry, looked up, the tested form may be a part): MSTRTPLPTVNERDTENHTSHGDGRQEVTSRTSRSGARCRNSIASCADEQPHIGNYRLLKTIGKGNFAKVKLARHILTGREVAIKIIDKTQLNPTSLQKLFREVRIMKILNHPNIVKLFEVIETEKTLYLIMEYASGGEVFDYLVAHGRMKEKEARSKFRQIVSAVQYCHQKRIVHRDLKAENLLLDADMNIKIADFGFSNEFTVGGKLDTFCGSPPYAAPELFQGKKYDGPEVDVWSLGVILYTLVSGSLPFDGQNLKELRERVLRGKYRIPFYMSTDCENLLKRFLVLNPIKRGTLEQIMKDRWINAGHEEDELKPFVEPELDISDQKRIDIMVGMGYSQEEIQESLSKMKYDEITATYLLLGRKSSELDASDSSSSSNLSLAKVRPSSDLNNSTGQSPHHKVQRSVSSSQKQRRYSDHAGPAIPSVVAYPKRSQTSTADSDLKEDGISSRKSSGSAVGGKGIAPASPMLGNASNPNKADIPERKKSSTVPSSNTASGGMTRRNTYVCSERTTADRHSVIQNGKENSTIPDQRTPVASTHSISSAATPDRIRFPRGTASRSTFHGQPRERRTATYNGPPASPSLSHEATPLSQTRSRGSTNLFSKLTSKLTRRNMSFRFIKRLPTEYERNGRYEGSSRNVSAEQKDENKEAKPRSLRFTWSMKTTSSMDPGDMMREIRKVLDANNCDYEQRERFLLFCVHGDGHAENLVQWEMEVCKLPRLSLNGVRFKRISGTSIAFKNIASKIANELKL
Sequence of Ribosomal protein S6 kinase alpha-3 (Homo sapiens) (P51812 whole entry, the tested form may be a part): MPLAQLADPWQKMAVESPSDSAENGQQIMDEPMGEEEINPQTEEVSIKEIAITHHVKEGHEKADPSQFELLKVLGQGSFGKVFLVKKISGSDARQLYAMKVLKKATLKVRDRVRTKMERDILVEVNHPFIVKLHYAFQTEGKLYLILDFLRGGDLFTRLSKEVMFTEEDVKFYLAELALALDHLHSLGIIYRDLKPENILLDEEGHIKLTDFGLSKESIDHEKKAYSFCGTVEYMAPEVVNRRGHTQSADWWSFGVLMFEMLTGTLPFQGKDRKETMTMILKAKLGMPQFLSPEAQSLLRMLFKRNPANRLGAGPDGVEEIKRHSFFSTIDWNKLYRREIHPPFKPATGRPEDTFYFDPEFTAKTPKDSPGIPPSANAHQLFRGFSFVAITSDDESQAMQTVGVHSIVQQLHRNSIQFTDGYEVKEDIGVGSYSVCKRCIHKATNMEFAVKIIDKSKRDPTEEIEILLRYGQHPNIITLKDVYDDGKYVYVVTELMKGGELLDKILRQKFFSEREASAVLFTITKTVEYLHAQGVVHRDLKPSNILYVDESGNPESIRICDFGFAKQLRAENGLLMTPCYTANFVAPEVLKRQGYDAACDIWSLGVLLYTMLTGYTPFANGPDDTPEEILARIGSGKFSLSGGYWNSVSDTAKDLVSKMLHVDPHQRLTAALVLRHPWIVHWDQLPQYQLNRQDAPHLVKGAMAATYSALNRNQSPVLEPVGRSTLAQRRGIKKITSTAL

Regarding `NCC1CCN(c2ncnc3[nH]ccc23)CC1`, in [1], the inhibition (in general, how much of the control response was suppressed) stood at 3%. Take `c1nc(N2CCOCC2)c2nc[nH]c2n1`: the inhibition in test [2] was 64%; in test [3], 95.5%. `C[C@H](CN(C)C)Oc1nc(Nc2cc3cccc(Cl)c3cn2)cnc1C#N`: the inhibition in [4] was found to be 11.5%. In the case of `NC1(Cc2ccc(Cl)cc2)CCN(c2ncnc3[nH]ccc23)CC1`, the inhibition in test [5] was found to be 3%.

With `NCC1CN(c2ncnc3[nH]c4cnccc4c23)CCO1` (configuration not stated), in test [6], the inhibition came out at 0%.

Turning to `CNCc1ccc(-c2ncnc3[nH]cnc23)cc1`, the inhibition in test [7] is 42.5%.

As for `NC1CCN(c2ncnc3[nH]ccc23)CC1`, in [8], the inhibition worked out at 18%. With `NCCc1ccc(-c2ncnc3[nH]cnc23)cc1`, the inhibition in test [9] is 87.5%; in [10] it was 37%; in test [11], 44%. On to `c1cnc2[nH]ccc2c1`, for which the inhibition in test [12] was 45.5%.
